Data from ChEMBL document CHEMBL1132683 (Bioorg Med Chem Lett, 1999).
Numbered stars: 1 amine (or outer) side, 2 acyl side, 3 side chain; on linkers, the order of the positions; unused ones are H or OH. Bridge positions count the residues as written; N and C are the ends. Square brackets hold non-standard residues; d marks the D form. Peptide text beside a SMILES is read from it. X1 = O=C([C@@]1(N[*:1])CCc2ccccc2C1)[*:2]; Atc(2S) = N[C@@]1(C(=O)O)CCc2ccccc2C1; Mpa = O=C(O)CCS; Sar = CNCC(=O)O

What was measured:
[1] = biological target: Oxytocin receptor (Cavia porcellus); assay: Compound was evaluated for its dissociation constant (Kd) to guinea pig myometrial Oxytocin receptor
Vasopressin V2 receptor = Vasopressin V2 receptor (Rattus norvegicus, UniProt Q00788); assay: Compound was evaluated for its dissociation constant (Kd) to rat kidney Vasopressin V2 receptor
Chain of Vasopressin V2 receptor (Q00788 whole entry): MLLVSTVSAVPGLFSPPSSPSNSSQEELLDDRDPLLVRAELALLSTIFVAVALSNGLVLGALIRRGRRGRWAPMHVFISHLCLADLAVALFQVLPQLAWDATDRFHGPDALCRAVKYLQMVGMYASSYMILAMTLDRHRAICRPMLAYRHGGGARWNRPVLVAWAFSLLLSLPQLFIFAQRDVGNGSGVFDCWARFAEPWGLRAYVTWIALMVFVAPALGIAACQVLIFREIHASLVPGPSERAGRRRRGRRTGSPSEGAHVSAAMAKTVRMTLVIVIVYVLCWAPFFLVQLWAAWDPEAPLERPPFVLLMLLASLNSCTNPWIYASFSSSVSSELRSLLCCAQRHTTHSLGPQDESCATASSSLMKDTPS

Vasopressin V1 receptor = Vasopressin V1 receptor (Rattus norvegicus, UniProt P48974+P30560); assay: Compound was evaluated for its dissociation constant (Kd) to rat liver Vasopressin V1 receptor

Kd [1] [nM] | Kd (Vasopressin V2 receptor) [nM] | Kd (Vasopressin V1 receptor) [nM] | Structure (SMILES)
6 | 3 | – | CC[C@H](C)[C@@H]1NC(=O)[C@@H](Cc2c[nH]c3ccccc23)NC(=O)CC2(CCCCC2)SSC[C@@H](C(=O)N(C)CC(=O)N[C@@H](CCCNC(=N)N)C(=O)NCC(N)=O)NC(=O)[C@H](CC(N)=O)NC(=O)[C@H](CCC(N)=O)NC1=O
– | 421 | – | CC[C@H](C)[C@@H]1NC(=O)[C@@H](Cc2ccccc2)NC(=O)CCSSC[C@@H](C(=O)N(C)CC(=O)N[C@@H](CCCNC(=N)N)C(=O)NCC(N)=O)NC(=O)[C@H](CC(N)=O)NC(=O)[C@H](CCC(N)=O)NC1=O
– | > 100000 | 63.5 | CC[C@H](C)[C@@H]1NC(=O)[C@@H]2c3[nH]c4ccccc4c3CCN2C(=O)CCSSC[C@H](C(=O)N(C)CC(=O)N[C@@H](CCCN=C(N)N)C(=O)NCC(N)=O)NC(=O)[C@H](CC(N)=O)NC(=O)[C@H](CCC(N)=O)NC1=O (single isomer, unassigned)
– | 5340 | 2640 | CC[C@H](C)[C@@H]1NC(=O)[C@]2(CCc3ccccc3C2)NC(=O)CCSSC[C@@H](C(=O)N(C)CC(=O)N[C@@H](CCCN=C(N)N)C(=O)NCC(N)=O)NC(=O)[C@H](CC(N)=O)NC(=O)[C@H](CCC(N)=O)NC1=O ([Mpa][X1]IQNC[Sar]RG-NH2; disulfide 1-6)
– | 2290 | 17600 | CC[C@H](C)[C@@H]1NC(=O)[C@@]2(CCc3ccccc3C2)NC(=O)CCSSC[C@@H](C(=O)N(C)CC(=O)N[C@@H](CCCN=C(N)N)C(=O)NCC(N)=O)NC(=O)[C@H](CC(N)=O)NC(=O)[C@H](CCC(N)=O)NC1=O ([Mpa][Atc(2S)]IQNC[Sar]RG-NH2; disulfide 1-6)
– | > 100000 | 17.8 | CC[C@H](C)[C@@H]1NC(=O)[C@@H]2c3[nH]c4ccccc4c3CCN2C(=O)CCSSC[C@H](C(=O)N(C)CC(=O)N[C@@H](CCCN=C(N)N)C(=O)NCC(N)=O)NC(=O)[C@H](CC(N)=O)NC(=O)[C@H](CCC(N)=O)NC1=O
– | 4960 | 888 | CC[C@H](C)[C@@H]1NC(=O)[C@@H](Cc2c[nH]c3ccccc23)NC(=O)CCSSC[C@@H](C(=O)N(C)CC(=O)N[C@@H](CCCNC(=N)N)C(=O)NCC(N)=O)NC(=O)[C@H](CC(N)=O)NC(=O)[C@H](CCC(N)=O)NC1=O
